Reference: US20100021885A1, “REAGENT SETS AND GENE SIGNATURES FOR NON-GENOTOXIC HEPATOCARCINOGENICITY” (priority 2006, published 2010)
Like-named read-outs stand apart in the source and are kept apart here.

Experiments:
[1] = system: livers from treated male Sprague-Dawley rats
Procedure: Briefly, in vivo short-term repeat dose rat studies were conducted on over 580 test compounds, including marketed and withdrawn drugs, environmental and industrial toxicants, and standard biochemical reagents. Rats (three per group) were dosed daily at either a low or high dose. […] Animals were necropsied on days 0.25, 1, 3, and 5 or 7. Up to 13 tissues (e.g., liver, kidney, heart, bone marrow, blood, spleen, brain, intestine, glandular and nonglandular stomach, lung, muscle, and gonads) were collected for histopathological evaluation and microarray expression profiling on the Amersham CodeLink™ RU1 platform (also referred to herein as “CodeLink Uniset™ Rat 1 Bioarray”). In addition, a clinical pathology panel consisting of 37 clinical chemistry and hematology parameters was generated from blood samples collected on days 3 and 5.
The remaining 21 NGTC chemicals and 26 NC chemicals were reserved for independent validation of the signature. Each chemical was evaluated in a short term repeat dose in vivo study in male Sprague-Dawley rats (n=3/group). The livers from treated and control rats were collected after 1, 3 and 5 days of dosing and RNA was extracted for gene expression profiling. Gene expression changes in treated animals were compared to suitably matched controls and represented as average log10 ratios for each treatment group. Since the development of tumors is a long term multi-step process, the 100 training set chemicals were profiled at the latest time point in order to capture gene expression changes that were likely to be reflective of repeat dose treatment effects that contribute to carcinogenicity and not reflective of an initial stimulus following a single dose that may be transient in nature.
Male Sprague-Dawley (Crl:CD®(SD)(IGS)BR) rats (weight matched, 7 to 8 weeks of age and averaging 200 to 250 g) were purchased from Charles River Laboratories (Portage, Mich.) and housed individually in hanging, stainless steel, wire-bottom cages in a temperature (66-77° F.), light (12-hour dark/light cycle) and humidity (30-70%) controlled room. […] Housing and treatment of the animals were in accordance with regulations outlined in the USDA Animal Welfare Act (9 CFR Parts 1, 2 and 3). Animals were assigned to groups such that mean body weights were within 10% of the mean vehicle control group. Test articles were administered either orally (10 ml of corn oil/kg body weight) or by intra-peritoneal injection (5 ml of saline/kg body weight), as indicated. Animals were dosed once daily starting on day 0, and necropsied 24 hrs after the last dose, as indicated. An equivalent number of time- and vehicle-matched control rats were treated concurrently.
Briefly, liver samples from 3 rats were chosen from each treatment and control group for gene expression analysis on the Codelink Uniset™ Rat 1 Bioarray (GE Healthcare Bio-Sciences Corp., Piscataway, N.J.). A complete list of probes on the array is provided on the Amersham Biosciences web site (www.amershambiosciences.com). Log transformed signal data for all probes were array-wise normalized used Array Qualifier (Novation Biosciences, Palo Alto, Calif.), a non-linear centralization normalization procedure adapted for the CodeLink microarray platform. Log10 ratios for each experimental group are computed as the difference between the average of the logs of the normalized experimental signals and the average of the logs of the normalized control signals for each gene.
where S is the scalar product and b is the bias term. Evaluation of S for a test experiment across the n genes in the signature determines what side of the hyperplane in m dimensional space the test experiment lies, and thus the result of the classification. Experiments with scalar products greater than 0 are considered positive for non-genotoxic hepatocarcinogenicity.

liver of rats = settings: cited from earlier work
[2] = 37 gene signature, maximum scalar product over days 1, 3 and 5, scalar product greater than zero = positive
[3] = maximum of days 1, 3, 5, greater than zero = classified non-genotoxic hepatocarcinogen
[4] = literature-curated: induction of neoplastic lesions in the liver of rats, two year rodent bioassay results and/or class effect information
[5] = male, Sprague-Dawley, rat, in vivo
[6] = test chemicals, literature class NGTC or NC

## C[C@]12CC[C@H]3[C@@H](CCC4=CC(=O)CC[C@@]43C)[C@@H]1CC[C@@H]2O [TESTOSTERONE]
[1]; male, rat, in vivo
  Day 1 (scalar product): 0.25
  Day 3 (scalar product): 0.45
  Day 5 (scalar product): −0.63
  Max (maximum scalar product observed over the multiple time points): 0.45
Liver of rats; rat, in vivo
  Class: NGTC

## CC(=O)Nc1ccc2c(c1)Cc1ccccc1-2 [2-acetylaminofluorene, reference compound]
[1]; [2]
  signature prediction for non-genotoxic hepatocarcinogenicity: weakly positive
[1]; 37 gene signature, maximum scalar product over the time points
  scalar product (SP): 0.03
[1]; [3]
  Max (maximum scalar product observed over the multiple time points): 0.03
Liver of rats; genotoxic hepatocarcinogens section
  Class: GTC

## CCO [ETHANOL]
Liver of rats; [4]
  Class: NGTC

## OC(Cn1cncn1)(Cn1cncn1)c1ccc(F)cc1F [FLUCONAZOLE]
[1]; [5]
  Max (maximum scalar product observed over the multiple time points): 3.63
Liver of rats; [6]
  Class: NGTC

## CCCC(C)C1(CC)C(=O)NC(=O)NC1=O (stereo not drawn) [PENTOBARBITAL]
Liver of rats; [4]
  Class: NGTC

## CC(C)(Oc1ccc(CCNC(=O)c2ccc(Cl)cc2)cc1)C(=O)O [BEZAFIBRATE]
[1]; [5]
  Max (maximum scalar product observed over the multiple time points): 2.72
Liver of rats; [6]
  Class: NGTC

## C[C@]12CCC(=O)C=C1CC[C@@H]1[C@@H]2CC[C@@]2(C)[C@H]1CC[C@]2(C)O [17-METHYLTESTOSTERONE]
Liver of rats; [4]
  Class: NGTC

## ClC(Cl)(Cl)Cl [carbon tetrachloride, reference compound]
[1]; [2]
  signature prediction for non-genotoxic hepatocarcinogenicity: positive
[1]; [3]
  Max (maximum scalar product observed over the multiple time points): 0.50
Liver of rats; [6]
  Class: NGTC

## CN(C)CCN(Cc1cccs1)c1ccccn1
Liver of rats; [4]
  Class: NGTC

## CC/C(=C(/CC)c1ccc(O)cc1)c1ccc(O)cc1 [DIETHYLSTILBESTROL]
[1]; [5]
  Max (maximum scalar product observed over the multiple time points): 2.75
Liver of rats; [6]
  Class: NGTC

## CC(C)(Oc1ccc(C2CCCc3ccccc32)cc1)C(=O)O (stereo not drawn) [NAFENOPIN]
Liver of rats; [4]
  Class: NGTC

## CC[C@H](C)C(=O)O[C@H]1C[C@@H](C)C=C2C=C[C@H](C)[C@H](CC[C@@H]3C[C@@H](O)CC(=O)O3)[C@H]21 [LOVASTATIN]
[1]; [5]
  Max (maximum scalar product observed over the multiple time points): 1.07
Liver of rats; [6]
  Class: NGTC

## ClC(Cl)Cl [chloroform, reference compound]
[1]; male, rat, in vivo
  Day 1 (scalar product): 1.50
  Day 3 (scalar product): 0.74
  Day 5 (scalar product): 0.27
  Max (maximum scalar product observed over the multiple time points): 1.50
Liver of rats; rat, in vivo
  Class: NGTC

## CC(=O)O[C@]1(C(C)=O)CC[C@H]2[C@@H]3C=C(Cl)C4=CC(=O)[C@@H]5C[C@@H]5[C@]4(C)[C@H]3CC[C@@]21C [CYPROTERONE ACETATE]
[1]; [5]
  Max (maximum scalar product observed over the multiple time points): 1.16
Liver of rats; [6]
  Class: NGTC

## Cc1ccc(C)c(OCCCC(C)(C)C(=O)O)c1 [GEMFIBROZIL]
Liver of rats; [4]
  Class: NGTC

## C[C@]12Cc3c[nH]nc3C[C@@H]1CC[C@@H]1[C@@H]2CC[C@@]2(C)[C@H]1CC[C@]2(C)O [STANOZOLOL]
[1]; [3]
  Max (maximum scalar product observed over the multiple time points): 0.54
Liver of rats; [6]
  Class: NGTC

## Cc1cccc(Nc2cc(Cl)nc(SCC(=O)O)n2)c1C [PIRINIXIC ACID]
Liver of rats; [4]
  Class: NGTC

## CC(NC(C)(C)C)C(=O)c1cccc(Cl)c1 (stereo not drawn) [BUPROPION]
Liver of rats; [4]
  Class: NGTC

## CC[C@H](C)C(=O)O[C@H]1C[C@H](O)C=C2C=C[C@H](C)[C@H](CC[C@@H](O)C[C@@H](O)CC(=O)O)[C@H]21 [PRAVASTATIN]
Liver of rats; [4]
  Class: NGTC

## Clc1cc2c(cc1Cl)Oc1cc(Cl)c(Cl)cc1O2 [2,3,7,8-TETRACHLORODIBENZO-P-DIOXIN]
Liver of rats; [4]
  Class: NGTC

## CC[C@]1(O)CC[C@H]2[C@@H]3CCC4=CCCC[C@@H]4[C@H]3CC[C@@]21C [ETHYLESTRENOL]
[1]; [3]
  Max (maximum scalar product observed over the multiple time points): 2.25
Liver of rats; [6]
  Class: NGTC

## O=c1cc(-c2ccccc2)oc2ccc3ccccc3c12 [BETA-NAPHTHOFLAVONE]
[1]; [3]
  Max (maximum scalar product observed over the multiple time points): 0.81
Liver of rats; [6]
  Class: NGTC

## NC(=O)N1c2ccccc2C=Cc2ccccc21 [CARBAMAZEPINE]
[1]; [5]
  Max (maximum scalar product observed over the multiple time points): −0.35
Liver of rats; [6]
  Class: NGTC

## CCOC(=O)C(C)(C)Oc1ccc(Cl)cc1 [CLOFIBRATE]
Liver of rats; [4]
  Class: NGTC

## CCCCC(CC)COC(=O)c1ccccc1C(=O)OCC(CC)CCCC (stereo not drawn) [BIS(2-ETHYLHEXYL)PHTHALATE]
[1]; rat, in vivo
  Day 1 (scalar product): 0.47
  Day 3 (scalar product): 1.04
  Day 5 (scalar product): −0.09
  Max (maximum scalar product observed over the multiple time points): 1.04
Liver of rats; rat, in vivo
  Class: NGTC

## C=C(Cl)Cl [1,1-dichloroethene, reference compound]
[1]; [2]
  signature prediction for non-genotoxic hepatocarcinogenicity: negative
[1]; [3]
  Max (maximum scalar product observed over the multiple time points): −0.80

## C#C[C@]1(O)CC[C@H]2[C@@H]3CCc4cc(O)ccc4[C@H]3CC[C@@]21C [ETHINYLESTRADIOL]
Liver of rats; [4]
  Class: NGTC

## c1ccc2c(c1)Nc1ccccc1S2 [PHENOTHIAZINE]
[1]; [3]
  Max (maximum scalar product observed over the multiple time points): 0.70

## C=CCc1ccc2c(c1)OCO2 [SAFROLE]
Liver of rats; rat, in vivo
  Class: NGTC

## CCN(CC)N=O [N-nitrosodiethylamine, reference compound]
[1]; male, rat, in vivo
  Day 1 (scalar product): −2.17
  Day 3 (scalar product): −1.83
  Day 5 (scalar product): −1.41
  Max (maximum scalar product observed over the multiple time points): −1.41
[1]; rat, in vivo
  signature prediction for non-genotoxic hepatocarcinogenicity: negative
Liver of rats; rat, in vivo
  Class: GTC

## CN(C)[C@@H]1C(O)=C(C(N)=O)C(=O)[C@@]2(O)C(O)=C3C(=O)c4c(O)cccc4[C@@](C)(O)[C@H]3C[C@@H]12 [TETRACYCLINE]
[1]; male, rat, in vivo
  Day 1 (scalar product): −0.40
  Day 3 (scalar product): −1.18
  Day 5 (scalar product): −1.31
  Max (maximum scalar product observed over the multiple time points): −0.40

## OCCOCCN1CCN(C2=Nc3ccccc3Sc3ccccc32)CC1 [QUETIAPINE]
[1]; [5]
  Max (maximum scalar product observed over the multiple time points): −0.42

## CC(C)OC(=O)C(C)(C)Oc1ccc(C(=O)c2ccc(Cl)cc2)cc1 [FENOFIBRATE]
Liver of rats; [4]
  Class: NGTC

## Cc1cccc(C)c1NC(=O)C(C)N (stereo not drawn) [TOCAINIDE]
[1]; [5]
  Max (maximum scalar product observed over the multiple time points): −0.91

## CC(=O)[C@H]1CC[C@H]2[C@@H]3CCC4=CC(=O)CC[C@]4(C)[C@H]3CC[C@]12C [PROGESTERONE]
Liver of rats; [4]
  Class: NGTC

## CC(C)(C)CC(C)(C)c1ccc(OCCOCC[N+](C)(C)Cc2ccccc2)cc1 [BENZETHONIUM CHLORIDE]
[1]; male, rat, in vivo
  Day 1 (scalar product): −0.13
  Day 3 (scalar product): −1.34
  Day 5 (scalar product): −1.68
  Max (maximum scalar product observed over the multiple time points): −0.13

## CC(C)c1c(C(=O)Nc2ccccc2)c(-c2ccccc2)c(-c2ccc(F)cc2)n1CC[C@@H](O)C[C@@H](O)CC(=O)O [ATORVASTATIN]
[1]; [5]
  Max (maximum scalar product observed over the multiple time points): 1.85

## aflatoxin B1
Liver of rats; rat, in vivo
  Class: GTC

## C[C@]12CC[C@@H]3c4ccc(O)cc4CC[C@H]3[C@@H]1C[C@@H](O)[C@@H]2O [ESTRIOL]
Liver of rats; rat, in vivo
  Class: NGTC

## CC(=N)S [THIOACETAMIDE]
Liver of rats; [4]
  Class: NGTC
